Several values for one entry are separate records, joined by “and”; a condition that tells them apart may be missing. Equal entries are not always repeated.

For this assay, the target named is human BACE-1 (Homo sapiens, UniProt P56817). Description: CEREP BACE Inhibition Assay. The format is biochemical. The conditions noted are these: recombinant enzyme; for inhibition at 1 µM: read-out: % Inhibition @ 1.0 μM; for IC50: read-out: IC50. The protocol: More specifically the assay, run at 50 μL in a 96 well plate, evaluated the effect of test compound on the activity of the human BACE-1 quantified by measuring the formation of Mca-S-E-V-N-L-NH2 from […], using a recombinant enzyme. The test compound, reference compound or water (control) were added to a buffer containing 0.09 M sodium acetate (pH 4.5) and 0.25 μg BACE-1. Compound interference with the fluorimetric detection method due to autofluorescence was then checked by measurements at the wavelengths defined to evaluate the enzyme activity. […] For control basal measurement, the substrate was omitted from the reaction mixture. […] The standard inhibitory reference compound was OM99-2, which was tested in each experiment at several concentrations to obtain an inhibition curve from which its IC50 value was calculated.

The mark [1] stands for this setting: 1.0 μM, percent inhibition of the control activity.

Sequence of human BACE-1 (P56817 46-501): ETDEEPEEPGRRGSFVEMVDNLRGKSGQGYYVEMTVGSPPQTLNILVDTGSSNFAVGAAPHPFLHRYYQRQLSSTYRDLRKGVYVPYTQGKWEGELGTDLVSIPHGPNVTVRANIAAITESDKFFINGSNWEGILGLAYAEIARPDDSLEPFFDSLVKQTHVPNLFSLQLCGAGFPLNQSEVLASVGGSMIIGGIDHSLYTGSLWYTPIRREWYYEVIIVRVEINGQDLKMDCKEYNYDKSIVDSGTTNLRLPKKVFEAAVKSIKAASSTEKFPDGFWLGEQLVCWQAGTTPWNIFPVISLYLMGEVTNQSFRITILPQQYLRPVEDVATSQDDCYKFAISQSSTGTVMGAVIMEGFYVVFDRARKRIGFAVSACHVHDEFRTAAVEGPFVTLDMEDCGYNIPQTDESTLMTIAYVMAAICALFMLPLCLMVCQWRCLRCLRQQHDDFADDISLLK

For the molecule `CC(C)(CO)CNC(=O)CC[C@@H](C1CCCCC1)N1Cc2cc(Oc3ccccc3)ncc2N=C1N` [Compound 179], the IC50 – broadly, the point on the concentration scale where inhibition reaches its midpoint – amounted to 81 nM. Moreover, the inhibition (usually the drop in the measured response relative to a control, in per cent) at 1 µM under setting [1] stood at 100%.

Regarding `CC(C)(CO)NC(=O)CC[C@@H](C1CCCCC1)N1Cc2cc(Oc3ccccc3)ncc2N=C1N` [Compound 180], the IC50 is 91 nM. In addition, under setting [1], the inhibition at 1 µM is 99%.

Take `CC(C)(C)OCCNC(=O)CC[C@@H](C1CCCCC1)N1Cc2cc(Oc3ccccc3)ncc2N=C1N` [Compound 181]: the IC50 turned out to be 85 nM. Under setting [1], the inhibition at 1 µM was found to be 96%.

Turning to `CC(C)(C)CCN(CCC[C@@H](C1CCCCC1)N1Cc2cc(Oc3ccccc3)ncc2N=C1N)CCN1CCOCC1` [Compound 182], the IC50 was found to be 89 nM. For the same molecule, under setting [1], the inhibition at 1 µM was determined as 100%.

Turning to `C[C@H](CO)N(C)C(=O)CC[C@@H](C1CCCCC1)N1Cc2cc(Oc3ccccc3)ncc2N=C1N` [Compound 183], the IC50 worked out at 580 nM. Also, the inhibition at 1 µM under setting [1] came to 70%.

Take `C[C@H](CO)N(C)CCC[C@@H](C1CCCCC1)N1Cc2cc(Oc3ccccc3)ncc2N=C1N` [Compound 184]: the IC50 was determined as 2300 nM. Also, the inhibition at 1 µM under setting [1] stood at 45%.

With `C[C@@H](OCc1ccccc1)[C@H](CCC(=O)N(CCC(C)(C)C)Cc1ccncc1)N1Cc2cc(Oc3ccccc3)ncc2N=C1N` [Compound 185, 4-(S)-(2-Amino-6-phenoxy-4H-pyrido[3,4-d]pyrimidin-3-yl)-5-(R)-benzyloxy-hexanoic acid (3,3-dimethyl-butyl)-pyridin-4-ylmethyl-amide], the IC50 stood at 270 nM. The inhibition at 1 µM under setting [1] turned out to be 85%.

With `C[C@@H](O)[C@H](CCC(=O)NCC(C)(C)C)N1Cc2cc(Oc3ccccc3)ncc2N=C1N` [Compound 186, 4-(S)-(2-Amino-6-phenoxy-4H-pyrido[3,4-d]pyrimidin-3-yl)-5-(R)-hydroxy-hexanoic acid (2,2-dimethyl-propyl)-amide], the concentration for half-maximal inhibition (IC50) was determined as 190 nM. Further, the inhibition at 1 µM under setting [1] was found to be 81%.

In the case of `CN(CCC[C@@H](C1CCCCC1)N1Cc2cc(Oc3ccccc3)ncc2N=C1N)C1CCCCC1` [Compound 187], the IC50 is 44 nM. Also, the inhibition at 1 µM under setting [1] came to 99%.

For `CC(C)CN(CCN1CCOCC1)C(=O)CC[C@@H](C1CCCCC1)N1Cc2cc(Oc3ccccc3)ncc2N=C1N` [Compound 189], the IC50 was determined as 140 nM. The inhibition at 1 µM under setting [1] came to 99%.

`CC(C)CN(CCN1CCOCC1)C(=O)CC[C@@H](C(C)C)N1Cc2cc(Oc3ccccc3)ncc2N=C1N` [Compound 190]: the 50% inhibitory concentration (IC50) came out at 190 nM. The inhibition at 1 µM under setting [1] came out at 86%.

For the molecule `CC(C)CN(CCC[C@@H](C1CCCCC1)N1Cc2cc(Oc3ccccc3)ncc2N=C1N)CCN1CCOCC1` [Compound 192], the IC50 turned out to be 73 nM. In addition, the inhibition at 1 µM under setting [1] is 101%.

For `CC(C)CN(CCC[C@@H](C(C)C)N1Cc2cc(Oc3ccccc3)ncc2N=C1N)CCN1CCOCC1` [Compound 193], the IC50 is 54 nM. Moreover, under setting [1], the inhibition at 1 µM was determined as 60%.

As to `CN(C(=O)CCCN1Cc2cc(Oc3ccccc3)ncc2N=C1N)C1CCCCC1` [Compound 196, 4-(2-Amino-6-phenoxy-4H-pyrido[3,4-d]pyrimidin-3-yl)-N-cyclohexyl-N-methyl-butyramide], the inhibition at 1 µM under setting [1] turned out to be 34%.

Regarding `NC1=Nc2cnc(Oc3ccccc3)cc2CN1[C@@H](CCn1cc(C2CCCCC2)nn1)C1CCCCC1` [Compound 198, 3-[—(S)-cyclohexyl-3-(4-cyclohexyl-[1,2,3]triazol-1-yl)-propyl]-6-phenoxy-3,4-dihydro-pyrido[3,4-d]pyrimidin-2-ylamine], the IC50 came to 140 nM. Moreover, the inhibition at 1 µM under setting [1] turned out to be 95%.

On to `CC(C)(C)c1cn(CC[C@@H](C2CCCCC2)N2Cc3cc(Oc4ccccc4)ncc3N=C2N)nn1` [Compound 199], for which the IC50 was found to be 86 nM. In addition, the inhibition at 1 µM under setting [1] is 100%.

As to `CC(C)(C)CNC(=O)C[C@@H](C1CCCCC1)N1Cc2cc(Oc3ccccc3)ncc2N=C1N` [Compound 200], the half-inhibitory concentration (IC50) was 780 nM and 760 nM. In addition, under setting [1], the “% Inhibition @ 1.0 μM” value came to 53% and the inhibition at 1 µM was 50%.

Source of the values: patent publication US7531545B2, “2-amino-3,4-dihydro-pyrido[3,4-d]pyrimidine derivatives useful as inhibitors of β-secretase (BACE)” (Janssen Pharmaceutica, N.V., priority 2005, dated 2009).
